Laboratory results from patent publication EP0523356B1, “Burst-test” (Orpegen Medizinisch-Molekularbiologische …, priority 1991, dated 1993).

Test system: Granulozyten
Experiment: Oxidative burst test in heparinised whole blood (dihydrorhodamine 123, flow cytometry)
Type: cell-based, menschlichen
Settings: Erwartungswerte, 10 + 10 Minuten Inkubation at 37°C, heparinised whole blood 100 µl
Method: Frisch entnommenes, heparinisiertes Vollblut wird gemixt (Vortex) und auf dem Boden eines 5 ml-Röhrchens aliquotiert, wobei pro Ansatz 100 µl verwendet werden. Durch EDTA oder Citrat stabilisiertes Vollblut ist für das Verfahren nicht sonderlich geeignet. Die Blutproben werden vor der Zugabe der Bakterien ca. 15 Minuten im Eiswasserbad inkubiert, um auf 0°C abgekühlt zu sein.
Die vorgekühlten E.coli-Bakterien (1 x 10^9 pro ml) werden gut gemixt (Vortex) und 20 µl pro Ansatz zum Vollblut pipettiert ("high control", Röhrchen 1). Gegebenenfalls können 20 µl N-Formyl-Met-Leu-Phe-Gebrauchslösung als "low control" in ein weiteres Röhrchen (Röhrchen 2) gegeben werden (Endkonzentration 10^-6 mol/l). 20 µl Waschlösung (phosphatgepufferte Salzlösung ohne Calcium^2+ und Magnesium^2+ mit 0,02 % EDTA) werden als Negativkontrolle in ein drittes Röhrchen (Röhrchen 3) gegeben.
Alle Röhrchen werden nochmals gemixt (Vortex) und 10 Minuten lang bei 37°C im Wasserbad unter starkem Schütteln inkubiert (bei einer kinetischen Messung können auch längere Inkubationszeiten erforderlich sein).
Nach 10 Minuten erfolgt die Zugabe von 20 µl frisch angesetzter Substratlösung und Mischen (Vortex) (Endkonzentration 0,2 µg Dihydrorhodamin 123 auf 100 µl Körperflüssigkeit). […]

Compound: CSCC[C@H](NC=O)C(=O)N[C@@H](CC(C)C)C(=O)N[C@@H](Cc1ccccc1)C(=O)O [N-Formyl-Met-Leu-Phe]
- mittlere Fluoreszenzintensität (4 Dekaden, 1024 Kanäle) (green fluorescence (FL1) of the oxidising cells, stimulant: 20 µl E.coli 1 x 10^9 pro ml or N-Formyl-Met-Leu-Phe Endkonzentration 10^-6 mol/l): 10-100
- % oxidierende Granulozyten (stimulant: 20 µl E.coli 1 x 10^9 pro ml or N-Formyl-Met-Leu-Phe Endkonzentration 10^-6 mol/l6 mol/l): 1-5%
